Data from ChEMBL document CHEMBL1255264, “Mechanism-based pharmacokinetic-pharmacodynamic models of in vitro fungistatic and fungicidal effects against Candida albicans” (Antimicrob Agents Chemother, 2008).
Converted amounts (≈) assume the structure as drawn.

Tests used:
[1] = tested on: Candida albicans; assay: Antifungal activity against Candida albicans ATCC 3153 assessed as death stimulation in vitro pharmacokinetic-pharmacodynamic model; format: functional, organism-based
[2] = tested on: Candida albicans; assay: Antifungal activity against Candida albicans ATCC 3153 after 48 hrs; format: functional; details: ATCC 3153, 48 h
[3] = tested on: Candida albicans; assay: Antifungal activity against Candida albicans ATCC 3153 assessed as maximum killing rate in vitro pharmacokinetic-pharmacodynamic model; format: functional
[4] = tested on: Candida albicans; assay: Antifungal activity against Candida albicans ATCC 3153 in vitro pharmacokinetic-pharmacodynamic model; format: functional, organism-based

Row | Structure (SMILES) | EC50 [1] | MIC [2] | Emax [3] | IC50 [4]
1 | CC[C@H](C)C[C@H](C)CCCCCCCCC(=O)N[C@H]1C[C@@H](O)[C@@H](NCCN)NC(=O)[C@@H]2[C@@H](O)CCN2C(=O)[C@H]([C@H](O)CCN)NC(=O)[C@H]([C@H](O)[C@@H](O)c2ccc(O)cc2)NC(=O)[C@@H]2C[C@@H](O)CN2C(=O)[C@H]([C@@H](C)O)NC1=O [CASPOFUNGIN] | 0.000251 µg/mL (≈ 0.00023 µM) | 0.015 µg/mL (≈ 0.0137 µM) | 8.04 ×10⁻¹ /hr | 
2 | OC(Cn1cncn1)(Cn1cncn1)c1ccc(F)cc1F [FLUCONAZOLE] |  |  |  | 0.0929 µg/mL (≈ 0.303 µM)
